Like-named read-outs stand apart in the source and are kept apart here.
Columns and labels:
Type in all cases: biochemical
human 20S proteasome [1] = molecular target: T1, human 20S proteasome (Homo sapiens, UniProt P28074); assay: Proteasome inhibition assay, chymotryptic activity (substrate Suc-LLVY-AMC)
T1 construct: human erythrocyte 20S proteasomes (AK-740, Biomol); purchased Biomol AK-740; host or cells: human erythrocytes
Text: (§1) The Ki' value is defined as the apparent dissociation constant of the inhibitor. The Ki' value can be calculated from the IC50 value using the equation: Ki' = IC50 * Km / (S+Km), wherein S is the concentration of the substrate, and Km is the substrate concentration (in the absence of an inhibitor) at which the velocity of the reaction is half-maximal. The Ki' of an inhibitor for inhibition of a particular substrate (fixed Km) is constant.
As used herein, the term "chymotryptic activity" refers to inhibition of the human 20S proteasome measured by the reduced proteolytic cleavage of the "chymotryptic" proteasome substrate Suc-LLVY-AMC.
(§2) Proteasome inhibition assays were performed with human erythrocyte 20S proteasomes (AK-740, Biomol) at 37 °C in 100 µL reaction volumes containing 2 µg ml^-1 20 proteasome and 100 µM Suc-LLVY-AMC as a substrate. Cleavage efficience in presence of varying inhibitor concentrations were followed by an MWGt Sirius HT plate reader (BIO-TEK instruments) equipped with 360 nm excitation and 460 nm emission filters. The obtained fluorescence values (RFU) were plotted versus time (t). The fluorescence data were fitted by the least squares method using SigmaPlot 10.0 software (Systat Software) to the equation f = f0 + Vst + [(vi - vs)/kobs][1-exp(-kobs*t)], where vi and vs are initial and final velocities, respectively, and kobs is the pseudo-first order associaten rate constant. Ki' values were then determined by plotting vi against inhibitor concentration [I]. Using SigmaPlot, the data were fitted with the hyperbolic equation vi = c + [v0/(Ki' + [I])] where v0 is the velocity of the control.

human 20S proteasome [2] = molecular target: T2, human 20S proteasome (Homo sapiens, UniProt Q99436); assay: Proteasome inhibition assay, tryptic activity (substrate Boc-LRR-AMC)
T2 construct: human erythrocyte 20S proteasomes (AK-740, Biomol); purchased Biomol AK-740; host or cells: human erythrocytes
Text: as §1
As used herein, the term "tryptic activity" refers to inhibition of the human 20S proteasome measured by the reduced proteolytic cleavage of the "tryptic" proteasome substrate Boc-LRR-AMC.
as §2
The inhibition of the tryptic proteasome activity was performed in analogy to example 7 with using Boc-LRR-AMC as a substrate instead of Suc-LLVY-AMC.

human 20S proteasome [3] = molecular target: T3, human 20S proteasome (Homo sapiens, UniProt P28072); assay: Proteasome inhibition assay, caspase-like activity (substrate Z-LLE-AMC)
T3 construct: human erythrocyte 20S proteasomes (AK-740, Biomol); purchased Biomol AK-740; host or cells: human erythrocytes
Text: as §1
As used herein, the term "caspase-like activity" refers to inhibition of the human 20S proteasome measured by the reduced proteolytic cleavage of the "caspase-lie" proteasome substrate Z-LLE-AMC.
as §2
The inhibition of the caspase-like proteasome activity was performed in analogy to example 7 with using Z-LLE-AMC as a substrate instead of Suc-LLVY-AMC.

SMILES | Ki (human 20S proteasome [1]; read-out: chymotryptic activity [Ki' value in nM], human erythrocyte 20S proteasomes, substrate Suc-LLVY-AMC 100 µM, 37 °C, Ki' = apparent dissociation constant) | Ki (human 20S proteasome [2]; read-out: tryptic activity [Ki' value in nM], human erythrocyte 20S proteasomes, substrate Boc-LRR-AMC, 37 °C, Ki' = apparent dissociation constant) | Ki (human 20S proteasome [3]; read-out: caspase-like activity [Ki' value in nM], human erythrocyte 20S proteasomes, substrate Z-LLE-AMC, 37 °C, Ki' = apparent dissociation constant) | Ki (human 20S proteasome [1]) | Ki (human 20S proteasome [2]) | Ki (human 20S proteasome [3])
CC(C)[C@H](NC(=O)N[C@H](C(=O)N[C@H]1/C=C/CCNC(=O)/C=C/[C@H](C(C)C)NC1=O)C(C)C)C(=O)NCCCCCNC(=O)c1ccc(-c2c3ccc(=[N+](C)C)cc-3oc3cc(N(C)C)ccc23)c(C(=O)[O-])c1 [Compound 2, SylA-Rhodamine] | > 100 nM | > 100 nM | > 50000 nM | – | – | –
CCCCCCCCCCNC(=O)N[C@H](C(=O)N[C@H]1/C=C/CCNC(=O)/C=C/[C@H](C(C)C)NC1=O)C(C)C [Compound 4, SylA-decanyl] | – | – | – | < 20 nM | 20 to 100 nM | > 100 nM
COCCOCCNC(=O)[C@@H](NC(=O)N[C@H](C(=O)N[C@H]1/C=C/CCNC(=O)/C=C/[C@H](C(C)C)NC1=O)C(C)C)C(C)C [Compound 3, SylA-PEG1] | – | – | – | < 20 nM | 20 to 100 nM | > 100 nM
COC(=O)[C@@H](NC(=O)N[C@H](C(=O)N[C@H]1/C=C/CCNC(=O)/C=C/[C@H](C(C)C)NC1=O)C(C)C)C(C)C [Compound 1, SylA-OCH3] | – | – | – | > 100 nM | > 100 nM | > 50000 nM
COCCOCCOCCNC(=O)N[C@H](C(=O)N[C@H]1/C=C/CCNC(=O)/C=C/[C@H](C(C)C)NC1=O)C(C)C [Compound 5, SylA-PEG2] | – | – | – | < 20 nM | 20 to 100 nM | > 100 nM

From patent publication EP2210881A1, “Derivatives of syringolin A” (Max-Planck-Gesellschaft zur Förderung der Wissenschaften …, priority 2009, dated 2010)
